# According to patent US7465857B1, “Glyphosate tolerant perennial ryegrass” (priority 2004, dated 2008):
# Read-outs that look alike come from different tables or passages of the source.
# Assays:
# [1] = system: EK-2703 (BAR Lp 2703); assay type: in vivo, Lolium perenne; details: Average June/July 1998, 9=completely green
# Procedure: The mean turf color rating for the BAR LP 2703 variety in this perennial ryegrass turf trial that was seeded in the spring of 1998 (at 16 kg/ha) in Wolfheze was 7.6 in June/July 1998 (9=completely green).
# [2] = system: BAR Lp 2703; assay type: in vivo, Lolium perenne; details: 40 days after first application, scale 1-9, 9=perfect turf
# Description: (§1) This example provides methods and results of field trials in which the glyphosate tolerance characteristics of BAR Lp 2703 were examined and compared with Peak perennial ryegrass in Florence, S.C.
# (§2) Peak and LP2703 perennial ryegrasses were overseeded at 350 lb/acre on dormant Bermuda grass base on Oct. 7, 2003. Turf quality was rated 7 times between Nov. 10, 2003 and Mar. 2, 2004. Turf quality fluctuated between 6.0 and 7.5 with changes in weather and fertilization (rated on a scale of 1-9 with 1=bare soil and 9=perfect turf).
# (§3) Experimental treatments were 0, 3, 5, 6, 8, 10, and 16 ounces Roundup PROS per acre. One application of each treatment was applied on Mar. 12, 2004 to plots 3 feet wide by 6 feet long. The 3 and 6 oz/acre treatments were applied a second time on Mar. 28, 2004. There were two replications of each treatment applied to each cultivar. Applications were made in 2 gallons of water per 1000 square feet with a CO2-charged backpack sprayer.
# (§4) Turf damage was rated on a scale of 0-9 with 0=no damage and 9=complete damage 7, 14, and 21 days after the first spray. Damage was not evident prior to 7 days.
# (§5) The ratings shown in Table 10 were obtained 40 days after the first application of glyphosate (24 days after 2nd application).
# [3] = system: Peak; assay: Field trial Florence, S.C.: glyphosate tolerance, turf damage and turf quality; assay type: in vivo, perennial ryegrass; details: 40 days after first application, scale 1-9, 9=perfect turf
# Description: as §1, §2, §3, §4, §5
smiles,measurement,setting,value
"O=C(O)CNCP(=O)(O)O [Glyphosate, N-(phosphonomethyl) glycine]",Turf Color After Spraying,[1],7.6
same,Turf quality ratings,[2]; 3 oz/acre twice,6.4
same,Turf quality ratings,[2]; 5 oz/acre,7.3
same,Turf quality ratings,[2]; 6 oz/acre twice,5.8
same,Turf quality ratings,[2]; 8 oz/acre,7.8
same,Turf quality ratings,[2]; 10 oz/acre,8.0
same,Turf quality ratings,[2]; 16 oz/acre,6.5
same,Turf quality ratings,[3]; 3 oz/acre twice,5.4
same,Turf quality ratings,[3]; 5 oz/acre,6.8
same,Turf quality ratings,[3]; 6 oz/acre twice,2.5
same,Turf quality ratings,[3]; 8 oz/acre,7.7
same,Turf quality ratings,[3]; 10 oz/acre,7.0
same,Turf quality ratings,[3]; 16 oz/acre,5.9
